Laboratory results as given in patent publication US8791132B2, “Compounds and methods for treatment of hypertension” (Medivation Technologies, Inc., priority 2011, dated 2014).
Values joined by “and” are separate entries in the source; they are usually repeats but may differ in a detail not shown here. Equal entries are not always repeated.

What was measured:
[1] = target: T1, human recombinant adrenergic α2B receptor (Homo sapiens, UniProt P18089); experiment: Radioligand binding, adrenergic α2B ([3H]Rauwolscine); conditions: for inhibition at 0.03 µM: read-out: Percentage inhibition of ligand binding, Adrenergic α2B (0.03 μM), compound at 0.03 μM; for inhibition at 0.03 µM / inhibition at 0.1 µM / Percentage inhibition of ligand binding, Adrenergic α2B (0.03 μM) / Percentage inhibition of ligand binding, Adrenergic α2B (0.1 μM): [3H]Rauwolscine, repeat datapoints each shown; for inhibition at 0.1 µM: read-out: Percentage inhibition of ligand binding, Adrenergic α2B (0.1 μM), compound at 0.1 μM; for Percentage inhibition of ligand binding, Adrenergic α2B (0.03 μM): compound at 0.03 μM; for Percentage inhibition of ligand binding, Adrenergic α2B (0.1 μM): compound at 0.1 μM; for Ki: read-out: Ki α2B
T1 construct: expressed in transfected cells; host or cells: CHO-K1
T1 sequence (P18089 1-450): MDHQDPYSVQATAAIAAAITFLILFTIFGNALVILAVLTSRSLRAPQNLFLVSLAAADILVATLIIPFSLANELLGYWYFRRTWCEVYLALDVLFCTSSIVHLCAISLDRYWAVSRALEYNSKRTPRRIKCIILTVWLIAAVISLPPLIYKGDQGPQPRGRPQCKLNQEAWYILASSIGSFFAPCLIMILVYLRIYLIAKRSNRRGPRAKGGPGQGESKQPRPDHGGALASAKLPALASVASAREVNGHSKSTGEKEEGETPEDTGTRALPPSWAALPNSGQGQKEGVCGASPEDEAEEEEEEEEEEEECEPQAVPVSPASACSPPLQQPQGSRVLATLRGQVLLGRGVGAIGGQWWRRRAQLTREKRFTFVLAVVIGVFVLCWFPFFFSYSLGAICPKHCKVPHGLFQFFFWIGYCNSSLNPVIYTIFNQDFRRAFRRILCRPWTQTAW
Summary of the method: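 Values are percent inhibition of specific radioligand binding. The receptor, expressed in CHO-K1 cells, was exposed to 2.5 nM [3H]Rauwolscine at 25° C for 60 min, with 10 μM Prazosin marking non-specific binding.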

[2] = target: T2, human recombinant adrenergic α2A receptor (Homo sapiens, UniProt P08913); experiment: Radioligand binding, adrenergic α2A ([3H]MK-912); conditions: for inhibition at 0.1 µM: read-out: Percentage inhibition of ligand binding, Adrenergic α2A (0.1 μM), compound at 0.1 μM; for inhibition at 0.1 µM / inhibition at 0.03 µM / Percentage inhibition of ligand binding, Adrenergic α2A (0.1 μM): [3H]MK-912, repeat datapoints each shown; for inhibition at 0.03 µM: read-out: Percentage inhibition of ligand binding, Adrenergic α2A (0.03 μM), compound at 0.03 μM; for Percentage inhibition of ligand binding, Adrenergic α2A (0.1 μM): compound at 0.1 μM
T2 construct: expressed in transfected cells; host or cells: insect Sf9 cells
T2 sequence (P08913 1-465): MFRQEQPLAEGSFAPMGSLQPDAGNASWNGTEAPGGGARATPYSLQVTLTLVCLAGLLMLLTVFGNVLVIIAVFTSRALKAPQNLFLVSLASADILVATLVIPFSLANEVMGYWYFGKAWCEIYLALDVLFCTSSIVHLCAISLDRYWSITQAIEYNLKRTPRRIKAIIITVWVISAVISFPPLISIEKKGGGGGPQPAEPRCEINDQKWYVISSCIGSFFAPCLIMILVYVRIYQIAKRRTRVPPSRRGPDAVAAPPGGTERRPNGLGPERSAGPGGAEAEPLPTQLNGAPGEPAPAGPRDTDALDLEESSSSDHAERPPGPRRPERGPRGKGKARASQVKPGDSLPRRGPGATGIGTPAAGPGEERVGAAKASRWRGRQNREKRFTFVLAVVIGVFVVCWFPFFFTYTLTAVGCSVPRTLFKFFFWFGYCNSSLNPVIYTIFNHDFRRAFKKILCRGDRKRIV
Summary of the method: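 Sf9-expressed receptor was incubated with compound for 60 min at 25 °C in modified Tris-HCl buffer, pH 7.4. Nonspecific binding was taken as that remaining with 10 μM WB-4101.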

[3] = target: T3, rat adrenergic α1B receptor (Rattus norvegicus, UniProt P15823); experiment: Radioligand binding, adrenergic α1B ([3H]Prazosin); conditions: [3H]Prazosin, repeat datapoints each shown; for inhibition at 0.03 µM: read-out: Percentage inhibition of ligand binding, Adrenergic α1B (0.03 μM), compound at 0.03 μM; for inhibition at 0.1 µM: read-out: Percentage inhibition of ligand binding, Adrenergic α1B (0.1 μM), compound at 0.1 μM; for Percentage inhibition of ligand binding, Adrenergic α1B (0.1 μM): compound at 0.1 μM
T3 construct: rat adrenergic α1B receptor obtained from Wistar Rat liver; from tissue; host or cells: Wistar rat liver
T3 sequence (P15823 1-515): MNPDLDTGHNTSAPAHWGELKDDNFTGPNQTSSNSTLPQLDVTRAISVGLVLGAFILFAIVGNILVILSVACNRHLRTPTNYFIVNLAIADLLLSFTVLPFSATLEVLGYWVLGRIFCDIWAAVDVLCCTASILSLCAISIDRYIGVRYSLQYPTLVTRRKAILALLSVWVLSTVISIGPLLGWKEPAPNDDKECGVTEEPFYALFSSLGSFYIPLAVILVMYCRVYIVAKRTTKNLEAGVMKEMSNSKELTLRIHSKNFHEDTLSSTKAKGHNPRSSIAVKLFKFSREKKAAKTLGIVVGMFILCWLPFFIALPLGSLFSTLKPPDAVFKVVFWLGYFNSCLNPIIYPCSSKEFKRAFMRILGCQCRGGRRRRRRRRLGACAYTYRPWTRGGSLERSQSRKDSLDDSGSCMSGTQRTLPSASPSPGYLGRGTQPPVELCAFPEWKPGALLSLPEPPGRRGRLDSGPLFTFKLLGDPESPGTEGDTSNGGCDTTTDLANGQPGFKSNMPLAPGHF
Summary of the method: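 Incubation ran 60 min at 25 °C in Tris-HCl buffer (50 mM, pH 7.4, 0.5 mM EDTA) with Wistar rat liver α1B receptor. 10 μM phentolamine set non-specific binding.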

| Compound | inhibition at 0.03 µM [1] | inhibition at 0.1 µM [1] | inhibition at 0.1 µM [2] | inhibition at 0.03 µM [3] | inhibition at 0.1 µM [3] | Percentage inhibition of ligand binding, Adrenergic α2B (0.03 μM) [1] | Percentage inhibition of ligand binding, Adrenergic α2B (0.1 μM) [1] | Ki [1] | Ki [2] | inhibition at 0.03 µM [2] | Percentage inhibition of ligand binding, Adrenergic α2A (0.1 μM) [2] | Percentage inhibition of ligand binding, Adrenergic α1B (0.1 μM) [3] | Percentage inhibition of ligand binding, Adrenergic α1B (0.03 μM) ([3]; compound at 0.03 μM, 0.03 µM) |
| --- | --- | --- | --- | --- | --- | --- | --- | --- | --- | --- | --- | --- | --- |
| Cc1ccc(CCn2c3c(c4cc(C)ccc42)CN(C)CC3)cc1 [compound 180, 2,3,4,5-tetrahydro-2,8-dimethyl-5-(4-methylphenethyl)-1H-pyrido[4,3-b]indole] | 91% | 99% | 95% | 70% | 87% | – | – | – | – | – | – | – | – |
| Cc1ccc(CCn2c3c(c4ccccc42)CN(C)CC3)cc1 [compound 181, 2,3,4,5-Tetrahydro-2-methyl-5-(4-methylphenethyl)-1H-pyrido[4,3-b]indole] | 70% | 92% | 89% | -4% | 30% | – | – | – | – | – | – | – | – |
| CN1CCc2c(c3ccccc3n2CCc2ccccc2)C1 [compound 182, 2,3,4,5-Tetrahydro-2-methyl-5-phenethyl-1H-pyrido[4,3-b]indole] | 83% | 91% | 69% | 13% | 29% | – | – | – | – | – | – | – | – |
| C/C(=C\n1c2c(c3cc(Cl)ccc31)CN(C)CC2)c1ccncc1 [compound 185, 8-chloro-2,3,4,5-tetrahydro-2-methyl-5-((E)-2-(pyridin-4-yl)prop-1-enyl)-1H-pyrido[4,3-b]indole] | 73% | 94% | 62% | 63% | 86% | 77% | 97% | 3.8 nM | 21 nM | 37% | – | – | – |
| C/C(=C\n1c2c(c3cc(C)ccc31)CN(C)CC2)c1ccc(C)nc1 [compound 186] | 94% | 100% | 54% | 24% | 53% | 97% | 101% | 0.52 nM | 11 nM | 53% | 72% | 55% | – |
| C/C(=C\n1c2c(c3cc(C)ccc31)CN(C)CC2)c1cnc(N(C)C)nc1 [compound 187] | 78% | 84% | – | – | 71% | – | 98% | 4.43 nM | 17.9 nM | 41% | 63% and 84% | – | – |
| C/C(=C\n1c2c(c3cc(C)ccc31)CN(C)CC2)c1sccc1C [compound 189] | 96% | 104% | 81% | 26% | – | – | 107% | 0.86 nM | 2.86 nM | 71% | 86% | 31% and 55% | – |
| Cc1ccc2c(c1)c1c(n2C2=C(c3ccc(C)s3)CCC2)CCN(C)C1 [compound 190, 2,8-dimethyl-5-(2-(5-methylthiophen-2-yl)cyclopent-1-enyl)-2,3,4,5-tetrahydro-1H-pyrido[4,3-b]indole] | 88% | 84% | 70% | 9% | 14% | – | 99% | 2.26 nM | 12.8 nM | 49% | 89% | 15% | – |
| Cc1ccc2c(c1)c1c(n2C2=C(c3ccc4c(ccn4C)c3)CCC2)CCN(C)C1 [compound 191, 2,8-dimethyl-5-(2-(1-methyl-1H-indol-5-yl)cyclopent-1-enyl)-2,3,4,5-tetrahydro-1H-pyrido[4,3-b]indole] | 84% | 89% | 89% | 2% | 10% | – | 99% | 3.23 nM | 2.1 nM | 85% | 98% | 20% | – |
| CCN1CCc2c(c3cc(C)ccc3n2CCc2ccccc2)C1 [compound 201] | 16% | 36% | 67% | 22% | 50% | – | – | – | – | – | – | – | – |
| CCN1CCc2c(c3cc(C)ccc3n2CCc2ccc(C)cc2)C1 [compound 202] | 7% | 22% | 92% | 29% | 52% | – | – | – | – | – | – | – | – |
| CCN1CCc2c(c3cc(C)ccc3n2CC(O)c2ccc(C)cc2)C1 (stereo not drawn) [compound 203] | 23% | 41% | – | 37% | – | – | – | – | – | – | 88% | 71% | – |
| CN1CCc2c(c3cccc(Cl)c3n2CCc2ccccc2)C1 [compound 216] | 98% | 103% | – | 34% | 65% | – | 106% | 0.95 nM | 9.59 nM | 58% | 76% and 98% | – | 47% |
| COc1ccc(/C(C)=C/n2c3c(c4cc(Cl)ccc42)CCN(C)CC3)cc1F [compound 240] | – | 83% | 82% | – | 74% | – | 97% | – | – | – | 87% | 75% | – |
| COc1ccc(/C(C)=C/n2c3c(c4cc(C)ccc42)CCN(C)CC3)cc1F [compound 241] | – | 91% | 75% | – | 81% | – | 93% | – | – | – | 78% | 82% | – |
